In patent US20070027143A1, “Novel substituted 2,3-benzodiazepine derivatives” (priority 2003, published 2007):
Like-named read-outs stand apart in the source and are kept apart here. Marks after values point to notes of the source that are not given here.

Tests used:
CD1 mice [1] = test: Anticonvulsant activity, 4-aminopyridine induced seizures; assay type: in vivo; conditions: Mus musculus; po.; read-out: 4-AP ED50
In short: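 Male CD1 mice (10 per dose) received test compounds orally at three dose levels, usually 60 min before chemical induction of clonic-tonic seizures and lethality.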

AMPA/kainate receptors = test: Inhibition of AMPA induced whole-cell current in acutely isolated cerebellar Purkinje cells (patch clamp); assay type: cell-based; conditions: 5 μM AMPA, read-out: Inhibition of the ion-currents caused by 5 μM AMPA, IC50
In short: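 Whole-cell patch-clamp on acutely isolated cerebellar Purkinje cells; current evoked by 5 μM AMPA, with compound activity measured as inhibition of this AMPA-induced current.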

epilepsy patients = conditions: Bialer et al.; cited from earlier work
rats = test: Inhibition of focal ischemia, middle cerebral artery occlusion (MCAO) test; assay type: in vivo
Experimental: The focal anti-ischemic activity of the compounds of formula (I) or (II) of the present invention was measured by the “middle cerebral artery occlusion” (MCAO) test (Bartus Stroke 11:2265 (1994) and Sydserff et al, Brit. J. Pharmacol. 114:1631 (1995)). […] After a histological process (TTC staining) 24 h later, the infarcted area was determined by a computer assisted scanner program and was compared to the results obtained in a control group treated with the vehicle.

BN rats = test: Bronchial hyperresponsiveness of ovalbumin sensitized, antigen challenged BN rats (tracheal rings, acetylcholine); assay type: in vivo; conditions: 3.0 mg/kg po, 2 hours pre-challenge, mean ± SE
From the text: Bronchial hyperresponsiveness (BHR) and airway eosinophilia (AEP) are characteristic features of bronchial asthma. BHR is typified by an exaggerated response to a wide variety of stimuli that can induce an increased resistance to airflow in the airways. AEP is a result of prolonged eosinophil infiltration, mast cell, and T cell activation in the airways. In actively (e.g., ovalbumin) immunized rats (e.g., Brown Norway [BN] strain), repeated sensitization followed by antigenic challenge results in lung eosinophilia and bronchial hyperresponsiveness to different spasmogens (e.g., acetylcholine). This is the most frequently employed model for studying potential anti-asthmatic effects of new chemical entities.
BN rats were actively immunized with allergen (ovalbumin). On day one, rats were sensitized with the subcutaneous administration of ovalbumin suspended in Al(OH)3 (2.5 μg ovalbumin +20 mg Al(OH)3 in 0.5 ml saline). Booster injections (same dose and same route) were given at day 14 and 21. Simultaneously at each occasion 0.25 ml of Bordatella pentussis vaccine was injected intraperitoneally. On day 28, animals were challenged by inhalation of the antigen (vaporized 1% OVA solution for 1 hour). Test compounds were administered orally 2 hours pre-challenge.
48 hours following challenge, they were sacrificed by an overdose of urethane (4-5 ml of 15% urethane given i.p.), bronchoalveolar lavage fluid (BALF) was obtained, and tracheae dissected from the animals. Eosinophil cell count (cells/ml BALF) was determined manually using a selective stain for eosinophils and counting the cells in a Buerker chamber. BHR was determined using tracheal rings suspended in an organ bath. After an equilibration period of 30 minutes, cumulative concentration response curves to acetylcholine were determined. Maximal response of control (unchallenged, non-treated) tracheal rings is obtained at 10^−3 M acetylcholine. The height of this response is defined as 100%. All other contractions are expressed as a percentage and related to the control response.

CD1 mice [2] = test: Anti-tremor effect, harmaline induced tremor; assay type: in vivo; conditions: po., Litchfield-Wilcoxon, limits in brackets
AMPA receptors = test: Inhibition of AMPA induced spreading depression in isolated chicken retina; assay type: cell-based; conditions: AMPA (5 μM)
In short: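 Isolated chicken retina; spreading depression evoked by 5 μM AMPA. Antagonism read as prolongation of the latency to spreading-depression onset.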

Lewis rats = test: Autoimmune encephalomyelitis model, neurological (clinical) symptoms; assay type: in vivo; conditions: Rattus norvegicus, po, female rats, read-out: Neurological symptoms (change compared to controls, %); for change in vivo at 3.75 mg/kg: 3.75 mg/kg p.o.
[3] = 2 mg/kg iv. 6x in every 30 min, first treatment 120 min after occlusion
[4] = 2 mg/kg iv. 6x in every 30 min, first treatment 180 min after occlusion

Row | SMILES | ED50 (CD1 mice [1]) [mg/kg] | IC50 (AMPA/kainate receptors) [nM] | Decrease of the infracted area in % compared to that of the control (rats; [3]) | Decrease of the infracted area in % compared to that of the control (rats; [4]) | MAX: relative contraction compared to the control at a maximal Ach concentration (BN rats) [%] | ED50, tremor induced by Harmaline 40 mg/kg ip. (CD1 mice [2]) | IC50 (AMPA receptors) [nM] | pEC50 of acetylcholine (BN rats) | also measured
1 | CC(=O)N1N=C(c2ccc(N)cc2)c2cc3c(cc2C[C@H]1C)OCO3 [GYKI 53773, (R)-7-acetyl-5-(4-aminophenyl)-8,9-dihydro-8-methyl-7H-1,3-dioxolo[4,5-h][2,3]benzodiazepine, reference compound] | 8.4 | 1570 | 49** % | 26% | 85 ± 43 | 9.0(−7.4-10.9) mg/kg po. | 1200 | – | Activity in clinical trials on epilepsy patients (epilepsy patients): active; Decrease of the infracted area in % compared to that of the control (rats; 2 mg/kg iv. 6x in every 30 min, first treatment 30 min after occlusion): 47* %
2 | Cc1nnc(N2N=C(c3ccc(N)cc3)c3cc4c(cc3C[C@H]2C)OCO4)s1 [Example 86, (R)-5-(4-Aminophenyl)-8-methyl-7-(5-methyl-1,3,4-thiadiazol-2-yl)-8,9-dihydro-7H-1,3-dioxolo-[4,5-h][2,3]benzodiazepine] | 10.1 | 60 | – | – | 81 ± 14 | 6.0(4.9-7.4) mg/kg po. | 420 | 4.95 ± 0.59 −log M | Decrease of the infracted area in % compared to that of the control (rats; 1 mg/kg iv. 6x in every 30 min, first treatment 180 min after occlusion): 35* %; Neuroprotective activity when administered 3 h after the occlusion (rats; result in words): significant activity
3 | Cc1nnc(N2N=C(c3ccc(N)c(C)c3)c3cc4c(cc3C[C@H]2C)OCO4)s1 [Example 119, (R)-5-(4-amino-3-methylphenyl)-8-methyl-7-(5-methyl-1,3,4-thiadiazol-2-yl)-8,9-dihydro-7H-1,3-dioxolo-[4,5-h][2,3]benzodiazepine] | 2.68 | 26 | 56* % | 44** % | 82 ± 7 | – | 69 | 4.35 ± 0.36 −log M | melting point: 158 to 160 °C; Decrease of the infracted area in % compared to that of the control (rats; 0.5 mg/kg iv. 6x in every 30 min, first treatment 120 min after occlusion): 7%; Decrease of the infracted area in % compared to that of the control (rats; 1 mg/kg iv. 6x in every 30 min, first treatment 120 min after occlusion): 38%; Decrease of the infracted area in % compared to that of the control (rats; 1.5 mg/kg iv. 6x in every 30 min, first treatment 120 min after occlusion): 51* %; Decrease of the infracted area in % compared to that of the control (rats; 1.5 mg/kg iv. 6x in every 30 min, first treatment 180 min after occlusion): 21%; Decrease of the infracted area in % compared to that of the control (rats; 2.0 mg/kg iv. 6x in every 30 min, first treatment 240 min after occlusion): 21%; change in vivo at 1 mg/kg (Lewis rats; 1.0 mg/kg p.o., 0-14 day): -23%; change in vivo at 3.75 mg/kg (Lewis rats; 0-8 day): -64%; change in vivo at 3.75 mg/kg (Lewis rats; 0-14 day): -61%
